Reference: patent publication US12516081B2, “Anti-viral compounds and methods of use” (Metro International Biotech, LLC, priority 2020, dated 2026)
Read-outs that look alike come from different tables or passages of the source.

What was measured:
SARS-CoV-2, USA-WA1/2020 = experiment: Antiviral assay: inhibition of SARS-CoV-2 cytopathic effect (neutral red) in Vero 76 cells; type: cell-based; conditions: read-out: Anti-viral Assay (EC50)
[1] = test system: NAAD in murine skeletal muscle; experiment: In vivo NAAD assay, mouse skeletal muscle; conditions: 500 mg/kg oral, mice, 8 hour time point, FIG. 2
Description: (§1) FIG. 2 provides the mean composite NAAD assayed concentration in mouse skeletal muscle cells. The Y-axis is concentration in mmol/kg. […] The left-most bar at each time point is vehicle, the central bar is reference compound nicotinamide mononucleotide (NMN), and the right-most bar at each time point is Compound 2. Each compound is administered orally to mice at 500 mg/kg.
(§2) In vivo NAD and NAAD assay: Animals were dosed with 500 mg/kg of test compound or reference compound in vehicle.

NAD in murine liver = experiment: In vivo NAD assay, mouse liver; conditions: 500 mg/kg oral, mice
Description: as §1, with “FIG. 1” for “FIG. 2”, “composite NAD” for “composite NAAD”, “mouse liver” for “mouse skeletal muscle”
as §2

[2] = concentration inhibiting CPE by 50%; i) and ii) are separate determinations

NC(=O)c1ccc[n+]([C@@H]2O[C@H](COP(=O)([O-])O)[C@@H](O)[C@H]2O)c1 [Nicotinamide mononucleotide (NMN), Nicotinamide mononucleotide, reference compound]
EC50 (SARS-CoV-2, USA-WA1/2020; [2]): > 2000 µM

NAR-2′C-methyl-5′-cytidine ester [Compound 5]
EC50 (SARS-CoV-2, USA-WA1/2020; [2]): > 100 µM

N#C[C@@]1(c2ccc3c(N)ncnn23)O[C@H](COP(=O)([O-])OC[C@H]2O[C@@H]([n+]3cccc(C(=O)O)c3)[C@H](O)[C@@H]2O)[C@@H](O)[C@H]1O [Compound 1, ((2R,3S,4R,5R)-5-(4-aminopyrrolo[2,1-f][1,2,4]triazin-7-yl)-5-cyano-3,4-dihydroxytetrahydrofuran-2-yl)methyl (((2R,3S,4R,5R)-5-(3-carboxy-1λ^4-pyridin-1-yl)-3,4-dihydroxytetrahydrofuran-2-yl)methyl)_phosphate]
EC50 (SARS-CoV-2, USA-WA1/2020; Severe acute respiratory syndrome coronavirus 2, Vero 76, 120 h, concentration inhibiting CPE by 50%; Vero 76 cells, neutral red, day 5 post-infection; i) and ii) are separate determinations): 17 µM | EC50 (SARS-CoV-2, USA-WA1/2020; concentration inhibiting CPE by 50%; Vero 76 cells, neutral red, day 5 post-infection; i) and ii) are separate determinations): 31 µM

NAR-2′C-Methyl-6-O-methyl-5′-guanosine ester [Compound 6]
EC50 (SARS-CoV-2, USA-WA1/2020; [2]): > 100 µM

NAR-2′C-methyl 5′-uridine ester [Compound 4]
EC50 (SARS-CoV-2, USA-WA1/2020; [2]): > 100 µM

NAR-2′C-methyl-5′-guanosine ester [Compound 3]
EC50 (SARS-CoV-2, USA-WA1/2020; [2]): > 100 µM

CCC(CC)COC(=O)[C@H](C)N[P@](=O)(OC[C@H]1O[C@@](C#N)(c2ccc3c(N)ncnn23)[C@H](O)[C@@H]1O)Oc1ccccc1 [Remdesivir, reference compound]
EC50 (SARS-CoV-2, USA-WA1/2020; Severe acute respiratory syndrome coronavirus 2, Vero 76, 120 h; concentration inhibiting CPE by 50%; i) and ii) are separate determinations): 1.9 to 6 µM

((2R,3S,4R,5R)-5-(3-((((2R,3S,4R,5R)-5-(4-aminopyrrolo[2,1-f][1,2,4]triazin-7-yl)-5-cyano-3,4-dihydroxytetrahydrofuran-2-yl)methoxy)carbonyl)-1λ^4-pyridin-1-yl)-3,4-dihydroxytetrahydrofuran-2-yl)methyl hydrogen phosphate [Compound 2]
NAAD level in murine skeletal muscle [1]: boosted | Oral availability (NAD in murine liver): orally available | NAD level in murine liver (NAD in murine liver; 8 hour time point, FIG. 1): boosted
